# In ChEMBL document CHEMBL1201862, “PubChem BioAssay data set” (2004):
# The source made the active and inactive calls.
# Experiments:
# BJ [1] = assay: BJ-TERT fibroblast viability loss – cell-based, RAS-independent, luminescence, dose response (AID 1933); type: functional; details: Homo sapiens
# cells [2] = type: functional, cell-based
# BJ [3] = assay: cells; type: functional, cell-based; details: Homo sapiens
# cells [4] = type: functional, cell-based; remark: listed apart in the source
# [5] = target: Aryl hydrocarbon receptor (Homo sapiens, UniProt P35869); assay: Luminescence-based cell-based high throughput dose response assay for activators of the Aryl Hydrocarbon Receptor (AHR). [Related pubchem assays: 2796 (Primary screen (AHR activators in singlicate)), 2845 (Confirmation screen (AHR activators in triplicate)), 434939 (Counterscreen (PXR activators in triplicate)), 2804 (Summary (AHR activators))]; type: ADME
# BJ [6] = assay: BJ-TERT-LT-ST fibroblast viability loss – cell-based, RAS-independent, luminescence, dose response (AID 1935); type: functional; details: Homo sapiens;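 further: BJ fibroblasts immortalized with TERT plus LT and ST oncogenes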
# [7] = DRD fibroblast viability loss – cell-based, non-viral oncogenic, luminescence, dose response (AID 1934); type: functional; details: Homo sapiens
# INS1 = assay: INS-1E survival protection against cytokine death – cell-based, luminescence, retest, dose response (AID 449756); type: functional; details: Rattus norvegicus;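 further: cell death triggered by IL-1 beta plus TNF-alpha plus IFN-gamma mixture; protective hits raise ATP signal compared with cytokine alone wells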
# [8] = target: DNA repair and recombination protein RAD54-like (Homo sapiens, UniProt Q92698); assay: RAD54 Holliday junction migration blockers – biochemical, fluorescence, cherry-picked samples, dose series, confirmation (AID 651657); type: functional
# [9] = target: SWI/SNF-related matrix-associated actin-dependent regulator of chromatin subfamily A member 2 (Homo sapiens, UniProt P51531); assay: Luminescence-based cell-based high throughput dose response assay to identify activators of the function of SWI/SNF related, matrix associated, actin dependent regulator of chromatin, subfamily a, member 2 (SMARCA2, BRM).; type: functional
# [10] = Counterscreen for activators of the function of SWI/SNF related, matrix associated, actin dependent regulator of chromatin, subfamily a, member 2 (SMARCA2, BRM): Luminescence-based cell-based high throughput dose response assay to identify non-selective compounds using the VP16 reporter assay.; type: functional
# [11] = target: Glucose-6-phosphate 1-dehydrogenase (Homo sapiens, UniProt P11413); assay: inhibition of Homo sapiens G6PD, dose series – biochemical, fluorescence, selectivity assay for P. falciparum G6PD inhibitor project, dose response (AID 504792); type: functional
# [12] = target: Mitochondrial peptide methionine sulfoxide reductase (Bos taurus, UniProt P54149); type: functional;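 further: absorbance read-out, biochemical high-throughput dose-response screen for MsrA inhibitors, confirmatory; recombinant bovine MsrA coupled to E. coli TrxB with NADPH and selenocystamine; potency is for inhibitors of MsrA activity on DMSO substrate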
# [13] = blockers of HIV-1 envelope-mediated cell-cell fusion – cherry-pick, dose response (AID 652057); type: functional, cell-based
# [14] = viability loss in CEM21 cells – cell-based, CellTiter-Glo luminescence, cherry-picked, cytotoxicity control for viral fusion inhibitor project, dose response (AID 652042); type: functional;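 further: potency for signal decrease meaning cytotoxicity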
# [15] = blockers of HIV-1 ZM109 envelope-driven cell-cell fusion – HeLa effector, CEM target cells, luciferase, cherry-pick, dose response (AID 652058); type: functional, cell-based;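 further: luciferase signal from HIV-1 Env mediated cell-cell fusion of effector and target cells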
# [16] = off-target signal loss in HeLa-CEM21 co-culture – HeLa F-luc CTL cells, cherry-picked, counter-screen for HIV-1 Env fusion inhibitor project, dose response (AID 652040); type: functional, cell-based;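 further: potency for signal decrease marking cytotoxic or nonspecific inhibition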
# [17] = HIV-1 AD8 envelope cell-cell fusion blockers – cherry-pick, dose response (AID 652062); type: functional, cell-based;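 further: luciferase signal from cell-cell fusion driven by HIV-1 clade B AD8 Env; potency is for inhibitors of fusion seen as a drop in luminescence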
# [18] = target: Tyrosine-protein phosphatase non-receptor type 11 (Homo sapiens, UniProt Q06124); assay: PTPN11 enzyme inhibitors – biochemical, selectivity assay for STEP inhibitor project, dose response (AID 602367); type: functional; details: read-out: IC50_Mean
# [19] = target: Tyrosine-protein phosphatase non-receptor type 5 (Homo sapiens, UniProt P54829); assay: PTPN5 enzyme inhibition – biochemical, fluorescence intensity, uHTS hits, confirmation (AID 602372); type: functional; details: read-out: IC50_Mean
# [20] = target: Dual specificity protein phosphatase 3 (Homo sapiens, UniProt P51452); assay: VHR phosphatase inhibition, dose response, selectivity assay for STEP inhibitor project, biochemical (AID 602374); type: functional; details: read-out: IC50_Mean
# Dual specificity protein phosphatase 3, sequence (P51452 whole entry): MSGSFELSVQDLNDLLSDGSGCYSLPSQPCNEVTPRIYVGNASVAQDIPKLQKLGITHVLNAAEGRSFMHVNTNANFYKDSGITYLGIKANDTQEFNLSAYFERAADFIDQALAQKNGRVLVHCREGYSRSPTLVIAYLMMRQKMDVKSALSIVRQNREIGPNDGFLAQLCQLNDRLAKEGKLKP
# Tyrosine-protein phosphatase non-receptor type 11, sequence (Q06124 whole entry): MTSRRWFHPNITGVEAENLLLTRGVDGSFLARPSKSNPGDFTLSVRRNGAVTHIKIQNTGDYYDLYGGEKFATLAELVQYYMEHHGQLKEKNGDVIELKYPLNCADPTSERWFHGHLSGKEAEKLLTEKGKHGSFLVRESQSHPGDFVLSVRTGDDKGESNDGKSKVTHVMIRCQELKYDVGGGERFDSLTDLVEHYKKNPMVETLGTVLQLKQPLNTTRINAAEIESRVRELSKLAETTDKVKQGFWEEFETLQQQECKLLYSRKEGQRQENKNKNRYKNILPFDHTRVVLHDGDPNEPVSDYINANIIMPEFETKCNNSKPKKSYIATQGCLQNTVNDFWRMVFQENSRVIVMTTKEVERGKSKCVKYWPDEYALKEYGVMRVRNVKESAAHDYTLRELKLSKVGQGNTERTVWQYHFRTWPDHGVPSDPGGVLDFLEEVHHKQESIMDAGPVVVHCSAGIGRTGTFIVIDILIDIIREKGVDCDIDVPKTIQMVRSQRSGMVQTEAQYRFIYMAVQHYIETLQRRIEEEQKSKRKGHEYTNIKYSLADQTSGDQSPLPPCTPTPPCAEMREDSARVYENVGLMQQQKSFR
# Mitochondrial peptide methionine sulfoxide reductase, sequence (P54149 whole entry, the tested form may be a part): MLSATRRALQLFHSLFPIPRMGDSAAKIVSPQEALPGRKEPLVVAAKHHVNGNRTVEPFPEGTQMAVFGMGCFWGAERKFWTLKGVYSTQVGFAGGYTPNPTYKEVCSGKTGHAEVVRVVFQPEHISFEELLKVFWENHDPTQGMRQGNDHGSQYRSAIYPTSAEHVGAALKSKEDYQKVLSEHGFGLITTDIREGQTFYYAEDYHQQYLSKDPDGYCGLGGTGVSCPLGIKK
# SWI/SNF-related matrix-associated actin-dependent regulator of chromatin subfamily A member 2, sequence (P51531 whole entry): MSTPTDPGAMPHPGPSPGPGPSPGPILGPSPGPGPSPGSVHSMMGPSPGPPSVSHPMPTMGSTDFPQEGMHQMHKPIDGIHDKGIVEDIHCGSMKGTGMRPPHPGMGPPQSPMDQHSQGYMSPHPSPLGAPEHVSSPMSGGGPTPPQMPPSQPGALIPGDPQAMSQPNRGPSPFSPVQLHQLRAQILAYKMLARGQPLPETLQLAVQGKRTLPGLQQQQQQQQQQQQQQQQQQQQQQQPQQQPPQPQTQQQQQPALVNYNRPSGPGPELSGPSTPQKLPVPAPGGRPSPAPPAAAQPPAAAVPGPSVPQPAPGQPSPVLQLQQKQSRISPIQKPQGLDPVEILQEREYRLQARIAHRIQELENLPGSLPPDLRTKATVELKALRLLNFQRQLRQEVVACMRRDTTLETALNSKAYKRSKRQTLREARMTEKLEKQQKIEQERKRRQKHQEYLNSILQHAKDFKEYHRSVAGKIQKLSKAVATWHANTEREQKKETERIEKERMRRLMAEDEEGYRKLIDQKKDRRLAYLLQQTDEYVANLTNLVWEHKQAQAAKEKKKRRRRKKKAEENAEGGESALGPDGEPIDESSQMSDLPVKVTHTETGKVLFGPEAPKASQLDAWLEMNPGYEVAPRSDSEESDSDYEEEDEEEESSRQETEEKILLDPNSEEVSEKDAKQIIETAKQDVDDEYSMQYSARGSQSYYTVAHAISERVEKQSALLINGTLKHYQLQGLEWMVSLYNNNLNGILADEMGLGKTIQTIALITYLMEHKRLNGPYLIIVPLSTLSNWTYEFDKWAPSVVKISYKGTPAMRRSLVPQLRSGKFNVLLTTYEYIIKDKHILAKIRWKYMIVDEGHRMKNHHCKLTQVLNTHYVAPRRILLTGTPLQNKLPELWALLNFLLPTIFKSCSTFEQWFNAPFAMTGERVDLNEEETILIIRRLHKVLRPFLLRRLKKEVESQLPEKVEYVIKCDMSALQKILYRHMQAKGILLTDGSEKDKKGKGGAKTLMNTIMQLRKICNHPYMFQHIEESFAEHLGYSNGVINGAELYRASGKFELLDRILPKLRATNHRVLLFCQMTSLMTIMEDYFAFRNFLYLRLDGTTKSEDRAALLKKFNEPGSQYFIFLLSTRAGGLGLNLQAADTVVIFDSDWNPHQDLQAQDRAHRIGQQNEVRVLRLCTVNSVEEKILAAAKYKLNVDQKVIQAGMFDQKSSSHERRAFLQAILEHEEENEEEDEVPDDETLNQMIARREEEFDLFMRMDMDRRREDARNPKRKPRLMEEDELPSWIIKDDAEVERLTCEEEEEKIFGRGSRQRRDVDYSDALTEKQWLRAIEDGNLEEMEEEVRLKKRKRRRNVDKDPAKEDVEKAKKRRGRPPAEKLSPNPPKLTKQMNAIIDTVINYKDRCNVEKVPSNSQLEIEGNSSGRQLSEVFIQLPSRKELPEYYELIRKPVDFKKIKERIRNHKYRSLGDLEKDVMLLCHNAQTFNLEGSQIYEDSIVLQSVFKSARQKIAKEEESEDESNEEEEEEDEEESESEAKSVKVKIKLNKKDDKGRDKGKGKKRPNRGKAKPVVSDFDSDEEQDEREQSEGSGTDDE
# Aryl hydrocarbon receptor, sequence (P35869 whole entry): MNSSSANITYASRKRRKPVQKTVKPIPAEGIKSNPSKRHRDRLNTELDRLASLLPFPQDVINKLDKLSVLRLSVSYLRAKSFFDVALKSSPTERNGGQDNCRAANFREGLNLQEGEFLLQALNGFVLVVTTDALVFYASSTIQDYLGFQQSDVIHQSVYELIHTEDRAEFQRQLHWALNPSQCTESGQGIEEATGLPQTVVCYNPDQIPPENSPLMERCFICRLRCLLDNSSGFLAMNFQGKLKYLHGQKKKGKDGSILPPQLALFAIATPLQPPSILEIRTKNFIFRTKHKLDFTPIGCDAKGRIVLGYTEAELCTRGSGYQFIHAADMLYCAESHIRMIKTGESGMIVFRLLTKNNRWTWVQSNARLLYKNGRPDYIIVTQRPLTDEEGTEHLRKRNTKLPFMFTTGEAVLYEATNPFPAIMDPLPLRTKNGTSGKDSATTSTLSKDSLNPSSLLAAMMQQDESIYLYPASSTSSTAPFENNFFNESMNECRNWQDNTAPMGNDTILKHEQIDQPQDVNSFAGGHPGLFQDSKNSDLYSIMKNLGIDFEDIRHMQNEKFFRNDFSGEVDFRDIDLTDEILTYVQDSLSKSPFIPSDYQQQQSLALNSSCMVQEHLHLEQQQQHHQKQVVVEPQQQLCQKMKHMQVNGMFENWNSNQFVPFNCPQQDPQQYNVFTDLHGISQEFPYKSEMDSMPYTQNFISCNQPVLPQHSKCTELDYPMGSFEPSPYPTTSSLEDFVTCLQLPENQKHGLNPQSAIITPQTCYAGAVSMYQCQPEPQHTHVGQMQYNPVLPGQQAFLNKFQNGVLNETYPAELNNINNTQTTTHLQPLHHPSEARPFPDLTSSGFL
# DNA repair and recombination protein RAD54-like, sequence (Q92698 whole entry): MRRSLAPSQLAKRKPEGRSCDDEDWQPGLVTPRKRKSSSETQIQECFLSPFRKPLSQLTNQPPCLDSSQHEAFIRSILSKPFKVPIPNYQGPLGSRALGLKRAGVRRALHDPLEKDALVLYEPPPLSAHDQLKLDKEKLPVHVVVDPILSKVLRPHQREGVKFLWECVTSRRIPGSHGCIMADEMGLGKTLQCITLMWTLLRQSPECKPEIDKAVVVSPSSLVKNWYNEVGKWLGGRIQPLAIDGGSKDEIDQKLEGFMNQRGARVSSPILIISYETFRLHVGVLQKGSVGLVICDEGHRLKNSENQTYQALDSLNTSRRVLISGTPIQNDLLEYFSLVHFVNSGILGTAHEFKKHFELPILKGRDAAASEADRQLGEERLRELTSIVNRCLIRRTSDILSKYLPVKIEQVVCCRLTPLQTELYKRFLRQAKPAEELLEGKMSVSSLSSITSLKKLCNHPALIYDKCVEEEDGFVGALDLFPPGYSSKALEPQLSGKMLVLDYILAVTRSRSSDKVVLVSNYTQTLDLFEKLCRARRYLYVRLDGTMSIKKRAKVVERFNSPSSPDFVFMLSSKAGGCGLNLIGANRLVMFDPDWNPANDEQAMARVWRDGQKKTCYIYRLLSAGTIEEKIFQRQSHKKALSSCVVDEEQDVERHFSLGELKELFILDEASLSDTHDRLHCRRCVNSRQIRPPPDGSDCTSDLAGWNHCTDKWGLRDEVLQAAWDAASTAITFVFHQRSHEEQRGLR
# Tyrosine-protein phosphatase non-receptor type 5, sequence (P54829 whole entry): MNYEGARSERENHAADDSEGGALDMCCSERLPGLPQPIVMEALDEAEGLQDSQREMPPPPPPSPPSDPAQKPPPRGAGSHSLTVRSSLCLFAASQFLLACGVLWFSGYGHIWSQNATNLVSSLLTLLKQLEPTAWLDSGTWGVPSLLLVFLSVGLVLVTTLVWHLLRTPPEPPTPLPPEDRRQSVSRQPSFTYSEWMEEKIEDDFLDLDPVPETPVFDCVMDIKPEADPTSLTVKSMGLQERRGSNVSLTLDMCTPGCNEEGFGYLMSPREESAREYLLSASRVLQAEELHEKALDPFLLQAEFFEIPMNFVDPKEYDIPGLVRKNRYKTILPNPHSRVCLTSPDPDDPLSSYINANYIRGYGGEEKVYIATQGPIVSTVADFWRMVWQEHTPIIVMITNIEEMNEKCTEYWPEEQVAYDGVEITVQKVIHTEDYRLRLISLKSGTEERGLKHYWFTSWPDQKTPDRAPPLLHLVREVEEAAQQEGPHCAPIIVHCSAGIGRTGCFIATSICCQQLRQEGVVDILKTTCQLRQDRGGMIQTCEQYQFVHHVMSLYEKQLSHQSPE
smiles,measurement,setting,value
Nc1cc2c3c(cccc3c1)C(=O)N(CCN1CCCC1)C2=O,EC50,BJ [1],13.2 µM (active)
same,EC50,cells [2],> 350 µM (not active)
same,EC50,BJ [3],20.6 µM (active)
same,EC50,cells [4],> 350 µM (not active)
same,EC50,[5],286 nM (active)
same,EC50,BJ [6],> 150 µM (inconclusive)
same,EC50,[7],19.5 µM (active)
same,AC50,INS1,3.43 µM (active)
same,AC50,[8],5.82 µM (active)
same,EC50,[9],> 10.1 µM (inactive)
same,EC50,[10],> 91.2 µM (inactive)
Cc1nc2c(o1)C(=O)c1ccccc1C2=Nc1ccccc1,IC50,[11],> 80 µM (inactive)
same,IC50,[12],155 µM (inactive)
same,AC50,[13],5.92 µM (active)
same,AC50,[14],4.8 µM (active)
same,AC50,[15],3.45 µM (active)
same,AC50,[16],4.25 µM (active)
same,AC50,[17],2.74 µM (active)
Sc1nnc(-c2cccnc2)n1/N=C/c1ccc(Br)s1,IC50,[18],4.66 µM (active)
same,IC50,[19],> 80 µM (inactive)
same,IC50,[20],4.27 µM (active)
